Assay results as given in PubChem BioAssay AID192 (DTP/NCI, 2004).
Values joined by “and” are separate entries in the source; they are usually repeats but may differ in a detail not shown here. Equal entries are not always repeated. Toxic doses and inconclusive results are not listed.

System: BDF1 mice, B16 melanoma ip, median survival T/C
Experiment: NCI In Vivo Anticancer Drug Screen. Data for tumor model B16 Melanoma (intraperitoneal) in B6D2F1 (BDF1) mice
Conditions: endpoint: median survival time, higher = longer survival
How it was run: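 Values are ratios of treated (T) to vehicle-control (C) measurements of survival or tumor size in tumor-bearing mice.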

[1] = dose: 0.2 mg/kg/injection, schedule: Q01DX009 (ip), vehicle: saline with Tween-80
[2] = dose: 0.4 mg/kg/injection, schedule: Q01DX009 (ip), vehicle: saline with Tween-80
[3] = dose: 0.8 mg/kg/injection, schedule: Q01DX009 (ip), vehicle: saline with Tween-80
[4] = dose: 100.0 mg/kg/injection, schedule: Q01DX009 (ip), vehicle: Klucel (hydroxypropylcellulose) (HPC)
[5] = dose: 200.0 mg/kg/injection, schedule: Q01DX009 (ip), vehicle: Klucel (hydroxypropylcellulose) (HPC)
[6] = dose: 400.0 mg/kg/injection, schedule: Q01DX009 (ip), vehicle: Klucel (hydroxypropylcellulose) (HPC)
[7] = dose: 200.0 mg/kg/injection, schedule: Q04DX003 (ip), vehicle: Klucel (hydroxypropylcellulose) (HPC)
[8] = dose: 25.0 mg/kg/injection, schedule: Q01DX009 (ip), vehicle: Klucel (hydroxypropylcellulose) (HPC)
[9] = dose: 100.0 mg/kg/injection, schedule: Q01DX009 (ip), vehicle: saline
[10] = dose: 200.0 mg/kg/injection, schedule: Q01DX009 (ip), vehicle: saline
[11] = dose: 50.0 mg/kg/injection, schedule: Q01DX009 (ip), vehicle: Klucel (hydroxypropylcellulose) (HPC)
[12] = dose: 400.0 mg/kg/injection, schedule: Q01DX009 (ip), vehicle: saline
[13] = dose: 50.0 mg/kg/injection, schedule: Q01DX009 (ip), vehicle: saline
[14] = dose: 12.5 mg/kg/injection, schedule: Q01DX009 (ip), vehicle: Klucel (hydroxypropylcellulose) (HPC)

[Cl][Pt+2][Br].[NH-]CC[NH-]
T/C (dose: 0.47 mg/kg/injection, schedule: Q04DX003 (ip), vehicle: saline with Tween-80): 110 % of control | T/C (dose: 0.5 mg/kg/injection, schedule: Q01DX009 (ip), vehicle: saline): 110 % of control | T/C (dose: 0.95 mg/kg/injection, schedule: Q04DX003 (ip), vehicle: saline with Tween-80): 118 % of control | T/C (dose: 1.0 mg/kg/injection, schedule: Q01DX009 (ip), vehicle: saline): 110 % of control | T/C (dose: 1.9 mg/kg/injection, schedule: Q04DX003 (ip), vehicle: saline with Tween-80): 105 % of control | T/C (dose: 2.0 mg/kg/injection, schedule: Q01DX009 (ip), vehicle: saline): 110 % of control

CCC1CN2CCc3cc(OC)c(OC)cc3C2CC1CC1c2cc(OC)c(OC)cc2CCN1C(=O)C(Cc1c[nH]c2ccccc12)NC(=O)OC(C)(C)C (stereo not given)
T/C (dose: 8.0 mg/kg/injection, schedule: Q04DX003 (ip), vehicle: saline with Tween-80): 102 % of control | T/C (dose: 16.0 mg/kg/injection, schedule: Q04DX003 (ip), vehicle: saline with Tween-80): 102 % of control | T/C (dose: 32.0 mg/kg/injection, schedule: Q04DX003 (ip), vehicle: saline with Tween-80): 100 % of control | T/C (dose: 64.0 mg/kg/injection, schedule: Q04DX003 (ip), vehicle: saline with Tween-80): 110 % of control | T/C (dose: 128.0 mg/kg/injection, schedule: Q04DX003 (ip), vehicle: saline with Tween-80): 89 % of control

COc1cc(/C=C2/c3cc(Cl)ccc3-c3c(Cl)cc(Cl)cc32)cc(OC)c1OC
T/C [1]: 86 % of control | T/C [2]: 86 % of control | T/C [3]: 86 % of control

COc1cccc(C(=O)C(CCC#N)c2ccccc2)c1 (stereo not given)
T/C [4]: 103 % of control | T/C [5]: 96 % of control | T/C [6]: 103 % of control

CCOC(=O)c1ccc(NC(=O)Nc2nncs2)cc1
T/C (dose: 6.25 mg/kg/injection, schedule: Q01DX009 (ip), vehicle: distilled water + Tween-80): 93 % of control | T/C (dose: 12.5 mg/kg/injection, schedule: Q01DX009 (ip), vehicle: distilled water + Tween-80): 112 % of control | T/C (dose: 25.0 mg/kg/injection, schedule: Q01DX009 (ip), vehicle: distilled water + Tween-80): 95 % of control | T/C (dose: 50.0 mg/kg/injection, schedule: Q01DX009 (ip), vehicle: distilled water + Tween-80): 98 % of control

Cc1ccc(S(=O)(=O)N/N=C\c2cc(Cl)ccc2O)cc1
T/C [4]: 100 % of control | T/C [5]: 105 % of control | T/C [6]: 102 % of control

Cc1ccc(C)c(NC(=O)Nc2ccccc2C)c1
T/C (dose: 50.0 mg/kg/injection, schedule: Q04DX003 (ip), vehicle: Klucel (hydroxypropylcellulose) (HPC)): 87 % of control | T/C [7]: 87 % of control

NNC(=S)N/N=C/c1ccc([N+](=O)[O-])s1
T/C [8]: 88 % of control | T/C [4]: 89 % of control

CN1CCC2(CC1)SSC1(CCN(C)CC1)S2
T/C [9]: 122 % of control | T/C (dose: 100.0 mg/kg/injection, schedule: Q04DX003 (ip), vehicle: saline): 91 % of control | T/C [10]: 116 % of control | T/C (dose: 200.0 mg/kg/injection, schedule: Q04DX003 (ip), vehicle: saline): 91 % of control

CC(C)CCOC(=O)C(O)c1ccccc1 (stereo not given)
T/C [4]: 87 % of control | T/C [5]: 93 % of control | T/C [6]: 87 % of control

CCN(C(=O)c1cccc(C(=O)N(CC)c2ccccc2C)c1)c1ccccc1C
T/C [11]: 101 % of control | T/C [4]: 98 % of control | T/C [5]: 102 % of control

CC(=O)Oc1cc(C)c(OC(C)=O)c2ccccc12
T/C [11]: 94 % of control | T/C [4]: 88 % of control

O=C(O)c1ccc(C(=O)O)c(C(=O)O)c1.[NH-]C1CCCCC1[NH-].[Pt+2]
T/C (dose: 0.19 mg/kg/injection, schedule: Q01DX009 (ip), vehicle: sodium bicarbonate): 151 % of control | T/C (dose: 0.39 mg/kg/injection, schedule: Q01DX009 (ip), vehicle: sodium bicarbonate): 118 % of control | T/C (dose: 0.4 mg/kg/injection, schedule: Q01DX009 (ip), vehicle: sodium bicarbonate): 116 % of control | T/C (dose: 0.78 mg/kg/injection, schedule: Q01DX009 (ip), vehicle: sodium bicarbonate): 185 % of control | T/C (dose: 0.8 mg/kg/injection, schedule: Q01DX009 (ip), vehicle: other): 165 % of control | T/C (dose: 1.56 mg/kg/injection, schedule: Q01DX009 (ip), vehicle: other): 181 % of control | T/C (dose: 1.56 mg/kg/injection, schedule: Q01DX009 (ip), vehicle: sodium bicarbonate): 158 % of control and 159 % of control | T/C (dose: 1.6 mg/kg/injection, schedule: Q01DX009 (ip), vehicle: other): 157 % of control | T/C (dose: 1.6 mg/kg/injection, schedule: Q01DX009 (ip), vehicle: sodium bicarbonate): 161 % of control | T/C (dose: 3.12 mg/kg/injection, schedule: Q01DX009 (ip), vehicle: other): 169 % of control | T/C (dose: 3.2 mg/kg/injection, schedule: Q01DX009 (ip), vehicle: sodium bicarbonate): 168 % of control | T/C (dose: 4.8 mg/kg/injection, schedule: Q01DX009 (ip), vehicle: sodium bicarbonate): 169 % of control | T/C (dose: 6.25 mg/kg/injection, schedule: Q01DX009 (ip), vehicle: other): 171 % of control

O=C(O)[C@@H]1[C@H](C(=O)O)[C@H](C(=O)O)C[C@@H]1C(=O)O
T/C [9]: 102 % of control | T/C [10]: 94 % of control | T/C [12]: 96 % of control

C=CCc1cn(C2CC(O)C(CO)O2)c(=O)[nH]c1=O (stereo not given)
T/C (dose: 12.5 mg/kg/injection, schedule: Q01DX009 (ip), vehicle: saline): 104 % of control | T/C (dose: 25.0 mg/kg/injection, schedule: Q01DX009 (ip), vehicle: saline): 105 % of control | T/C [13]: 104 % of control | T/C [9]: 105 % of control | T/C [10]: 105 % of control | T/C [12]: 107 % of control

CN=C(N)Nc1ccc(C(=O)Oc2ccc([N+](=O)[O-])cc2)cc1
T/C [14]: 103 % of control | T/C [8]: 102 % of control | T/C [11]: 104 % of control | T/C [4]: 106 % of control

COC(=O)C(CCCN)NC(=O)c1ccccc1 (stereo not given)
T/C [13]: 95 % of control | T/C [9]: 102 % of control | T/C [10]: 107 % of control | T/C [12]: 97 % of control

Cc1cc2nc(CBr)c(CBr)nc2cc1C
T/C (dose: 0.1 mg/kg/injection, schedule: Q01DX009 (ip), vehicle: saline with Tween-80): 86 % of control | T/C [1]: 86 % of control | T/C [2]: 92 % of control | T/C (dose: 0.75 mg/kg/injection, schedule: Q01DX009 (ip), vehicle: saline with Tween-80): 107 % of control | T/C [3]: 94 % of control | T/C (dose: 1.5 mg/kg/injection, schedule: Q01DX009 (ip), vehicle: saline with Tween-80): 97 % of control | T/C (dose: 3.0 mg/kg/injection, schedule: Q01DX009 (ip), vehicle: saline with Tween-80): 97 % of control | T/C (dose: 6.0 mg/kg/injection, schedule: Q01DX009 (ip), vehicle: saline with Tween-80): 89 % of control

CC(=O)OCC1OC(n2cc(CBr)nn2)C(OC(C)=O)C(OC(C)=O)C1OC(C)=O (stereo not given)
T/C (dose: 3.12 mg/kg/injection, schedule: Q01DX009 (ip), vehicle: Klucel (hydroxypropylcellulose) (HPC)): 97 % of control | T/C (dose: 6.25 mg/kg/injection, schedule: Q01DX009 (ip), vehicle: Klucel (hydroxypropylcellulose) (HPC)): 98 % of control | T/C [14]: 108 % of control | T/C [8]: 100 % of control | T/C [11]: 98 % of control

CCCN(CCC)CC(C)=O
T/C (dose: 100.0 mg/kg/injection, schedule: Q04DX003 (ip), vehicle: Klucel (hydroxypropylcellulose) (HPC)): 107 % of control | T/C [7]: 97 % of control
